# Data: EPA's ToxRefDB 2
# Columns and labels:
# [1] = tested on: rat; settings: Combined chronic toxicity/carcinogenicity; sprague dawley; Oral; Feed; dose end: 24 month; group: systemic; systemic / hematology / erythrocyte (rbc) count differential / erythrocyte (rbc) + systemic / hematology / hematocrit (hct) / hematocrit (…
# [2] = tested on: rat; settings: Prenatal developmental toxicity study, sprague dawley, Oral, Gavage/Intubation, dose end: 19 GD
# [3] = tested on: rat; settings: Subchronic oral toxicity in rodents, sprague dawley, Feed, dose end: 90 day
# [4] = tested on: dog; settings: Chronic toxicity; beagle; Oral; Feed; dose end: 60 week; group: systemic; systemic / clinical chemistry / thyroid stimulating hormone (thyrotropin) (tsh) / thyroid stimulating hormone (=thyrotropin) (tsh) + …
# [5] = tested on: mouse; settings: Carcinogenicity; cd1; Oral; Feed; dose end: 18 month; group: systemic; systemic / pathology microscopic / bone marrow / hematopoietic cell proliferation + systemic / pathology microscopic / liver / hematopoietic…
# [6] = tested on: rat; settings: Prenatal developmental toxicity study, sprague dawley, Oral, Gavage/Intubation, dose end: 19 GD; remark: listed apart in the source
# [7] = tested on: rat; settings: Multigenerational reproductive toxicity study, sprague dawley, Oral, Feed, dose end: 2 generation
# [8] = tested on: rabbit; settings: Prenatal developmental toxicity study; new zealand white; Oral; Gavage/Intubation; dose end: 18 GD; group: maternal; systemic / in life observation / body weight / body weight + systemic / in life observation / body weight / body weight gain + systemic / in…
# [9] = tested on: mouse; settings: Subchronic inhalation toxicity, cd1, Whole-Body, dose end: 13 week, group: systemic
# [10] = tested on: rat; settings: Carcinogenicity, fischer, Inhalation, Whole-Body, dose end: 104 week, group: systemic
# [11] = tested on: rat; settings: Prenatal developmental toxicity study, Sprague-Dawley, Oral, Gavage/Intubation, dose end: 15 GD
# [12] = tested on: rat; settings: Neurotoxicity screening battery; fischer; Inhalation; Whole-Body; dose end: 1 day; group: cannot be grouped; systemic / in life observation / clinical signs / abnormal gait + systemic / in life observation / clinical signs / body temperature + …
# [13] = tested on: rat; settings: Subchronic inhalation toxicity, fischer, Whole-Body, dose end: 13 week, group: systemic
# [14] = tested on: rat; settings: Developmental neurotoxicity study; sprague dawley; Oral; Gavage/Intubation; dose end: 68 PND; group: cannot be grouped; systemic / in life observation / mortality / mortality
# [15] = tested on: rat; settings: Combined chronic toxicity/carcinogenicity, sprague dawley, Oral, Feed, dose end: 2 year, group: systemic
# [16] = tested on: rat; settings: Subchronic oral toxicity in rodents, sprague dawley, Feed, dose end: 13 week, group: systemic, systemic / clinical chemistry / aspartate aminotransferase (ast/sgot) / aspartate aminotransferase (ast/sgot) + systemic / clinical …
# [17] = tested on: rat; settings: Multigenerational reproductive toxicity study, sprague dawley, Oral, Feed, dose end: 2 generation; remark: listed apart in the source
# [18] = tested on: rat; settings: Combined chronic toxicity/carcinogenicity, sprague dawley, Oral, Feed, dose end: 2 year, group: systemic; remark: listed apart in the source
# [19] = tested on: mouse; settings: Combined chronic toxicity/carcinogenicity, cd1, Oral, Feed, dose end: 18 month, group: systemic
# [20] = group: developmental, developmental / developmental malformation / bone / short
# [21] = group: maternal, systemic / in life observation / body weight / body weight gain + systemic / in life observation / body weight / body weight + systemic / in…
# [22] = group: cholinesterase, cholinesterase / cholinesterase / cholinesterase / plasma cholinesterase (che)
# [23] = group: systemic, systemic / hematology / erythrocyte (rbc) count differential / erythrocyte (rbc) + systemic / hematology / hemoglobin (hgb) / hemoglobin (…
# [24] = group: systemic, systemic / pathology microscopic / blood / focal cellular change
# [25] = group: developmental, developmental / developmental malformation / bone / bent + developmental / developmental malformation / bone / delayed ossification + …
# [26] = group: maternal, systemic / in life observation / clinical signs / [other] + systemic / pathology gross / spleen / discolored + systemic / pathology gross / …
# [27] = group: offspring, systemic / in life observation / body weight / offspring (pup) weight + systemic / organ weight / liver / absolute + systemic / organ weight…
# [28] = group: parental, systemic / organ weight / spleen / absolute + systemic / organ weight / spleen / relative to body weight + systemic / pathology microscopic…
# [29] = systemic / in life observation / body weight / body weight + systemic / in life observation / body weight / body weight gain + systemic / in…
# [30] = systemic / pathology microscopic / testes / adenoma
# [31] = group: developmental, systemic / in life observation / body weight / fetal weight
# [32] = group: maternal, systemic / in life observation / body weight / body weight gain + systemic / in life observation / mortality / mortality + systemic / organ …
# [33] = systemic / in life observation / clinical signs / reduced activity
# [34] = systemic / in life observation / clinical signs / reduced activity + systemic / hematology / erythrocyte (rbc) count differential / …
# [35] = systemic / organ weight / liver / relative to body weight
# [36] = systemic / organ weight / liver / relative to body weight + systemic / clinical chemistry / cholesterol / cholesterol
# [37] = group: offspring, systemic / in life observation / body weight / offspring (pup) weight
# [38] = group: parental, systemic / in life observation / body weight / body weight gain + systemic / in life observation / food consumption / food consumption + …
# [39] = group: reproductive, reproductive / offspring survival early / litter size / litter size
# [40] = systemic / organ weight / liver / relative to body weight + systemic / organ weight / thyroid gland / absolute + systemic / pathology gross…
# [41] = systemic / in life observation / clinical signs / amyloidosis + systemic / organ weight / brain / relative to brain weight + systemic / …
# [42] = systemic / organ weight / liver / relative to brain weight + systemic / organ weight / gallbladder / relative to brain weight
structure (smiles),measurement,setting,value
CC(C)OC(=O)Nc1cccc(Cl)c1 [Chlorpropham],LEL,[1],100 mg/kg/day
same,LOAEL,[1],100 mg/kg/day
same,NEL,[1],30 mg/kg/day
same,NOAEL,[1],30 mg/kg/day
same,LEL,[2]; [20],1000 mg/kg/day
same,LOAEL,[2]; [20],1000 mg/kg/day
same,NEL,[2]; [20],350 mg/kg/day
same,NOAEL,[2]; [20],350 mg/kg/day
same,LOAEL,"[2]; group: maternal, systemic / in life observation / body weight / body weight gain",350 mg/kg/day
same,NEL,[2]; [21],100 mg/kg/day
same,NOAEL,[2]; [21],100 mg/kg/day
same,LEL,"[2]; group: maternal, systemic / in life observation / body weight / body weight gain + systemic / in life observation / clinical signs / red or crusty deposits …",350 mg/kg/day
same,LEL,[3]; [22],1140 mg/kg/day
same,LOAEL,[3]; [22],> 1140 mg/kg/day
same,NEL,[3]; [22],279 mg/kg/day
same,NOAEL,[3]; [22],≥ 1140 mg/kg/day
same,LOAEL,[3]; [23],276 mg/kg/day
same,NOAEL,[3]; [23],64.8 mg/kg/day
same,LEL,[3]; [24],15.9 mg/kg/day
same,NEL,[3]; [24],< 15.9 mg/kg/day
same,LEL,[4],5 mg/kg/day
same,LOAEL,[4],50 mg/kg/day
same,NEL,[4],< 5 mg/kg/day
same,NOAEL,[4],5 mg/kg/day
same,LEL,[5],519 mg/kg/day
same,LOAEL,[5],519 mg/kg/day
same,NEL,[5],108 mg/kg/day
same,NOAEL,[5],108 mg/kg/day
same,LEL,[6]; [25],2000 mg/kg/day
same,LOAEL,[6]; [25],2000 mg/kg/day
same,NEL,[6]; [25],400 mg/kg/day
same,NOAEL,[6]; [25],400 mg/kg/day
same,LEL,[6]; [26],400 mg/kg/day
same,LOAEL,[6]; [26],400 mg/kg/day
same,NEL,[6]; [26],40 mg/kg/day
same,NOAEL,[6]; [26],40 mg/kg/day
same,LEL,[7]; [27],150 mg/kg/day
same,LOAEL,[7]; [27],150 mg/kg/day
same,NEL,[7]; [27],50 mg/kg/day
same,NOAEL,[7]; [27],50 mg/kg/day
same,LEL,[7]; [28],150 mg/kg/day
same,LOAEL,[7]; [28],150 mg/kg/day
same,NEL,[7]; [28],50 mg/kg/day
same,NOAEL,[7]; [28],50 mg/kg/day
CC(C)O [Isopropanol],LEL,[8],480 mg/kg/day
same,LOAEL,[8],> 480 mg/kg/day
same,NEL,[8],240 mg/kg/day
same,NOAEL,[8],≥ 480 mg/kg/day
same,LOAEL,[9]; [29],> 5000 ppm
same,NEL,[9]; [29],500 ppm
same,NOAEL,[9]; [29],≥ 5000 ppm
same,LEL,[9]; systemic / in life observation / clinical signs / ataxia + systemic / in life observation / clinical signs / lethargy + systemic / in life …,1500 ppm
same,LOAEL,[10]; [29],2500 ppm
same,NOAEL,[10]; [29],500 ppm
same,LEL,[10]; [30],500 ppm
same,NEL,[10]; [30],< 500 ppm
same,LEL,[11]; [31],800 mg/kg/day
same,LOAEL,[11]; [31],> 1200 mg/kg/day
same,NEL,[11]; [31],400 mg/kg/day
same,NOAEL,[11]; [31],≥ 1200 mg/kg/day
same,LOAEL,[11]; [32],> 1200 mg/kg/day
same,NEL,[11]; [32],400 mg/kg/day
same,NOAEL,[11]; [32],≥ 1200 mg/kg/day
same,LEL,"[11]; group: maternal, systemic / in life observation / mortality / mortality",800 mg/kg/day
same,LEL,[12],5000 ppm
same,LOAEL,[12],> 10000 ppm
same,NEL,[12],1500 ppm
same,NOAEL,[12],≥ 10000 ppm
same,LEL,[13]; [33],500 ppm
same,NEL,[13]; [33],< 500 ppm
same,LOAEL,[13]; [34],> 5000 ppm
same,NOAEL,[13]; [34],≥ 5000 ppm
same,LEL,[14],1200 mg/kg/day
same,LOAEL,[14],1200 mg/kg/day
same,NEL,[14],700 mg/kg/day
same,NOAEL,[14],700 mg/kg/day
CCC(CC)Nc1c([N+](=O)[O-])cc(C)c(C)c1[N+](=O)[O-] [Pendimethalin],LOAEL,[15]; [35],51 mg/kg/day
same,NOAEL,[15]; [35],< 51 mg/kg/day
same,LEL,[15]; [36],51 mg/kg/day
same,NEL,[15]; [36],< 51 mg/kg/day
same,LEL,[16],7.6 mg/kg/day
same,LOAEL,[16],382 mg/kg/day
same,NEL,[16],< 7.6 mg/kg/day
same,NOAEL,[16],39.2 mg/kg/day
same,LEL,[17]; [37],215 mg/kg/day
same,LOAEL,[17]; [37],215 mg/kg/day
same,NEL,[17]; [37],42 mg/kg/day
same,NOAEL,[17]; [37],42 mg/kg/day
same,LEL,[17]; [38],173 mg/kg/day
same,LOAEL,[17]; [38],173 mg/kg/day
same,NEL,[17]; [38],36 mg/kg/day
same,NOAEL,[17]; [38],36 mg/kg/day
same,LEL,[17]; [39],215 mg/kg/day
same,LOAEL,[17]; [39],215 mg/kg/day
same,NEL,[17]; [39],42 mg/kg/day
same,NOAEL,[17]; [39],42 mg/kg/day
same,LEL,[18]; systemic / in life observation / body weight / body weight gain + systemic / pathology gross / liver / accentuated lobular pattern,25 mg/kg/day
same,LOAEL,[18]; [40],> 250 mg/kg/day
same,NOAEL,[18]; [40],≥ 250 mg/kg/day
same,NEL,[18]; systemic / pathology microscopic / thyroid gland / adenoma + systemic / clinical chemistry / albumin / albumin + systemic / clinical …,5 mg/kg/day
same,LOAEL,[19]; [41],622 mg/kg/day
same,NOAEL,[19]; [41],62.3 mg/kg/day
same,LEL,[19]; [42],12.3 mg/kg/day
same,NEL,[19]; [42],< 12.3 mg/kg/day
